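Interpolation was linear, between the two tested concentrations surrounding the appropriate level; five concentrations were tested over 48 hours in 96-well plates. GI50 is the concentration that inhibits growth by half.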 Active and inactive are the calls of the source. Rule as the data show it: active = GI50 up to about 1.1 µM and inactive = higher.
What was measured:
Experiment in all cases: NCI anticancer screen, dose series, 48 h
[1] = system: ACHN
[2] = system: CAKI-1
[3] = system: CCRF-CEM
[4] = system: COLO 205
[5] = system: EKVX
[6] = system: HCT-15
[7] = system: HOP-62
[8] = system: HOP-92
[9] = system: LOX IMVI
[10] = system: M14
[11] = system: NCI-H460
[12] = system: OVCAR-3
[13] = system: RPMI-8226
[14] = system: SNB-75
[15] = system: UACC-62
[16] = system: HCC 2998
[17] = system: HCT-116

Compound	GI50 [1]	GI50 [2]	GI50 [3]	GI50 [4]	GI50 [5]	GI50 [6] [µM]	GI50 [7]	GI50 [8]	GI50 [9]	GI50 [10]	GI50 [11]	GI50 [12]	GI50 [13]	GI50 [14]	GI50 [15]	GI50 [16]	GI50 [17]
COS(=O)CCOC(=O)c1ccccc1SSc1ccccc1C(=O)OCCS(=O)OC (stereo unspecified)	43.7 µM (inactive)	27.2 µM (inactive)	3.79 µM (inactive)	23.4 µM (inactive)	> 100 µM (inactive)	23.8	> 100 µM (inactive)	25.1 µM (inactive)	22.2 µM (inactive)	20 µM (inactive)	> 100 µM (inactive)	22.1 µM (inactive)	18.9 µM (inactive)	6.31 µM (inactive)	20.5 µM (inactive)	–	–
Nc1nc(CCc2n[nH]c(N)n2)n[nH]1	> 100 µM (inactive)	> 100 µM (inactive)	> 100 µM (inactive)	> 100 µM (inactive)	> 100 µM (inactive)	> 100	> 100 µM (inactive)	> 100 µM (inactive)	> 100 µM (inactive)	> 100 µM (inactive)	> 100 µM (inactive)	> 100 µM (inactive)	> 100 µM (inactive)	> 100 µM (inactive)	> 100 µM (inactive)	> 100 µM (inactive)	> 100 µM (inactive)
Cc1ccccc1C1=[N+]([O-])c2ccc(Cl)cc2C1=O	12.9 µM (inactive)	–	3.82 µM (inactive)	7.76 µM (inactive)	12.5 µM (inactive)	13.3	20 µM (inactive)	14.8 µM (inactive)	7.78 µM (inactive)	16.3 µM (inactive)	15.4 µM (inactive)	2.6 µM (inactive)	3.31 µM (inactive)	19.8 µM (inactive)	12.4 µM (inactive)	13.6 µM (inactive)	7.46 µM (inactive)
C/C(=N\NC(=O)CC(=O)Nc1ccc(Cl)cc1)c1cc2ccccc2oc1=O	> 100 µM (inactive)	–	> 100 µM (inactive)	> 100 µM (inactive)	> 100 µM (inactive)	> 100	> 100 µM (inactive)	–	> 100 µM (inactive)	> 100 µM (inactive)	> 100 µM (inactive)	> 100 µM (inactive)	> 100 µM (inactive)	66.1 µM (inactive)	> 100 µM (inactive)	–	> 100 µM (inactive)
CN(C)CC1(C)CC/C(=C\c2ccccc2)C1=O (stereo unspecified)	> 100 µM (inactive)	> 100 µM (inactive)	43.1 µM (inactive)	> 100 µM (inactive)	–	63	> 100 µM (inactive)	> 100 µM (inactive)	> 100 µM (inactive)	> 100 µM (inactive)	> 100 µM (inactive)	> 100 µM (inactive)	27.5 µM (inactive)	> 100 µM (inactive)	> 100 µM (inactive)	> 100 µM (inactive)	> 100 µM (inactive)
O=C1CCCC[C@H]1[C@H]1CCC[C@@H]([C@H]2CCCCC2=O)C1=O	> 100 µM (inactive)	> 100 µM (inactive)	> 100 µM (inactive)	> 100 µM (inactive)	> 100 µM (inactive)	> 100	> 100 µM (inactive)	> 100 µM (inactive)	> 100 µM (inactive)	> 100 µM (inactive)	> 100 µM (inactive)	> 100 µM (inactive)	> 100 µM (inactive)	> 100 µM (inactive)	> 100 µM (inactive)	> 100 µM (inactive)	> 100 µM (inactive)
CC1=C(C(=O)CC(=O)C(=O)Nc2cccc(Cl)c2C)Sc2ccccc2N1	> 100 µM (inactive)	> 100 µM (inactive)	> 100 µM (inactive)	–	> 100 µM (inactive)	> 100	> 100 µM (inactive)	> 100 µM (inactive)	> 100 µM (inactive)	> 100 µM (inactive)	> 100 µM (inactive)	> 100 µM (inactive)	> 100 µM (inactive)	–	> 100 µM (inactive)	> 100 µM (inactive)	> 100 µM (inactive)
Cc1ccc(S(=O)(=O)CNC(=S)CCCC(=S)NCS(=O)(=O)c2ccc(C)cc2)cc1	–	> 100 µM (inactive)	21.3 µM (inactive)	> 100 µM (inactive)	> 100 µM (inactive)	53.8	> 100 µM (inactive)	20.2 µM (inactive)	18.6 µM (inactive)	> 100 µM (inactive)	> 100 µM (inactive)	48.9 µM (inactive)	21.4 µM (inactive)	> 100 µM (inactive)	44.3 µM (inactive)	> 100 µM (inactive)	49 µM (inactive)
Cc1c2cc[n+](C)cc2c(C)c2c1[nH]c1ccc(OC(C)(C)C)cc12	> 100 µM (inactive)	> 100 µM (inactive)	> 100 µM (inactive)	> 100 µM (inactive)	–	> 100	> 100 µM (inactive)	> 100 µM (inactive)	> 100 µM (inactive)	> 100 µM (inactive)	> 100 µM (inactive)	–	> 100 µM (inactive)	> 100 µM (inactive)	> 100 µM (inactive)	> 100 µM (inactive)	> 100 µM (inactive)

Source: ChEMBL document CHEMBL1201862, “PubChem BioAssay data set” (2004)
